Patent US11738006B2, “Pharmaceutical composition containing antifungal agent as active ingredient” (priority 2019, dated 2023)

Assay: Test on solubility to polyethylene glycol (visual check for insoluble luliconazole)
Type: physicochemical
Protocol: Examined was how luliconazole is dissolved by polyethylene glycol 200 having an average molecular weight of 190 to 210, polyethylene glycol 300 having an average molecular weight of 285 to 315, polyethylene glycol 400 having an average molecular weight of 380 to 420, and polyethylene glycol 600 having an average molecular weight of 570 to 630, each of which is represented by the formula HOCH2(CH2OCH2)nCH2OH (where n is an integer). To this end, the above polyethylene glycols (manufactured by NOF Corporation) were mixed with luliconazole according to the formulation presented in Table 1 below, and the properties of the solution (presence of insoluble matter (luliconazole)) were visually evaluated.

With N#C/C(=C1/SC[C@@H](c2ccc(Cl)cc2Cl)S1)n1ccnc1 [luliconazole, (R)-(−)-(E)-[4-(2,4-dichlorophenyl)-1,3-dithiolane-2-ylidene]-1-imidazolylacetonitrile] the solubility for luliconazole (in polyethylene glycol 400 compared to polyethylene glycol 200, 300 and 600) was “highest solubility” and the solubility for luliconazole (in polyethylene glycols 200, 300, 400, and 600) was “high solubility”.
